Assay results as given in PubChem BioAssay (NCI).
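96-well plates; 48 h exposure; 5 concentrations. Endpoints by linear interpolation between flanking doses. Not reached: highest tested concentration assigned. At the TGI there is no net growth.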

How the values were obtained:
Test in all cases: inhibition of tumour cell growth, NCI panel, 48 h
786-0 renal = tested on: 786-0 renal
DU-145 prostate = tested on: DU-145 prostate
HCC-2998 colon = tested on: HCC-2998 colon
HCT-116 colon = tested on: HCT-116 colon
HS 578T breast = tested on: HS 578T breast
M14 melanoma = tested on: M14 melanoma
MDA-MB-435 = tested on: MDA-MB-435
NCI-H522 lung = tested on: NCI-H522 lung
NCI/ADR-RES ovarian = tested on: NCI/ADR-RES ovarian
SK-MEL-5 melanoma = tested on: SK-MEL-5 melanoma
SN12C renal = tested on: SN12C renal
SW-620 colon = tested on: SW-620 colon

Structure (SMILES)	TGI (786-0 renal) [µM]	TGI (DU-145 prostate) [µM]	TGI (HCC-2998 colon) [µM]	TGI (HCT-116 colon) [µM]	TGI (HS 578T breast) [µM]	TGI (M14 melanoma) [µM]	TGI (MDA-MB-435) [µM]	TGI (NCI-H522 lung) [µM]	TGI (NCI/ADR-RES ovarian) [µM]	TGI (SK-MEL-5 melanoma) [µM]	TGI (SN12C renal) [µM]	TGI (SW-620 colon) [µM]
C/C(C=O)=N\Nc1cc(C)c2ccccc2n1	28.7	29.9	29.3	27.6	46.2	31.8	38.1	47.1	31	29.9	33	72.8
O=c1cc(-c2ccc(O)c(O)c2)oc2cc(OC3OC(CO)C(O)C(O)C3O)cc(O)c12 (stereo not drawn)	> 100	> 100	> 100	> 100	> 100	> 100	> 100	> 100	> 100	> 100	> 100	> 100
COc1ccc2oc(=N)c(C(N)=S)cc2c1	> 100	> 100	33.6	45.7	58.6	> 100	> 100	35.3	37.1	57.8	82.8	> 100
N#C/C(=C\c1ccc(Cl)cc1)c1nc2ccccc2c(=O)[nH]1	> 100	> 100	> 100	> 100	60.6	> 100	> 100	> 100	> 100	> 100	> 100	> 100
CC[C@@]1(O)C(=O)OCc2c1c(Cl)c1n(c2=O)Cc2cc3ccccc3nc2-1	6.68	8.63	80.6	8.76	> 100	9.04	> 100	20.8	15.1	5.42	> 61.8	> 100
CCOc1ccc(C2c3[nH]c4ccccc4c3CCN2C(=O)c2cccs2)cc1 (stereo not drawn)	> 100	> 100	> 100	> 100	> 100	> 100	> 100	> 100	> 100	> 100	> 100	> 100
O=C(/C=C/c1ccc(O)c(O)c1)NC(CO)C(=O)O (stereo not drawn)	> 100	> 100	> 100	> 100	> 100	> 100	> 100	> 100	64.6	> 100	> 100	> 100
CC(=O)OCC(OC(C)=O)C(OC(C)=O)C(/C=N/N(C(C)=O)S(=O)(=O)c1ccc(/C=C2\NC(=O)NC2=O)cc1)OC(C)=O (stereo not drawn)	> 100	> 100	> 100	> 100	> 100	> 100	> 100		> 100	> 100	> 100	> 100
COC(=O)n1c(=O)nc2c3c(ncn21)Oc1c(c(-c2ccccc2)nn1-c1ccccc1)C3c1ccc(Cl)cc1 (stereo not drawn)	2.81	2.98	2.72	2.17	2.62	2.75	3.02	2.82	2.77	3.16	3.1	3.06
CCn1c(=O)c2c(=O)[nH][nH]c2c2ccccc21	> 100	> 100	> 100	> 100	> 100		> 100	> 100	> 100	> 100	> 100	> 100
CCN(CC)c1ccc(/C=C/C2=NN(c3cccc(S(=O)(=O)O)c3)C3(C2)C(Cl)C(=O)N3c2nc3ccccc3s2)cc1 (stereo not drawn)	15.9	25.2	21.4	24.1	> 90.2	28.1	17	3.57	> 79.3	20.9	29	53.4
COc1ccc(CSCc2cc(OC)c(OC)c(OC)c2)cc1	> 100	> 100	> 31.6	> 31.6	> 100	> 100	> 81.3	> 100	> 31.6	> 100	> 100	> 100
CC(=O)NNC=N/C(C#N)=C(\N)C#N	> 100	> 100	> 100	> 100	> 100	> 100	> 100	> 100	> 100	> 100	> 100	> 100
CC(C)=CCC/C(C)=C/Cc1cc(/C=C/c2cc(O)c(CC=C(C)C)c(O)c2)cc(O)c1O	17	26.6	5.86	11.9	26.8	16	12.2	0.38	13.3	5.88	3.95	14.5
O=C(O)CCC(=O)Nc1ccc2c(c1)S(=O)(=O)N(CC(=O)O)C2=O	> 100	> 100	> 100	> 100	> 100	> 100	> 100	> 100	> 100	> 100	> 100	> 100
Cn1c(=O)nc2n(CCO)c(-c3ccccc3)c(-c3ccccc3)nc-2c1=O	> 100	> 100	> 100	> 100	> 100	> 100	> 100	> 100	> 100	> 100	> 100	> 100
CN(C(=O)C1=CCCCCC1)c1ccccc1I	> 100	> 100	> 100	> 100	35.5	> 100	> 100		68.7	> 100	> 100	> 100
Cc1c(-c2ccccc2)c(-c2ccc(OCCN(C)C)cc2)n2ccccc12	20.9	26.3	3.27	19	20.9	3.45	11.4	24	27.5	3.44	25.4	17.9
